Measurements as given in patent US11279733B2, “Peptide antibiotics” (priority 2017, dated 2022).
Converted amounts (≈) assume the structure as drawn. Like-named read-outs stand apart in the source and are kept apart here. Starred links: 1 amine or outer side, 2 acyl side, 3 side chain; linkers in the order of their positions; H or OH if unused. Positions of bridges follow the written chain, without caps; N, C: chain ends. Non-standard residues stand in square brackets, D forms with d. Residues, ends and D or L forms follow the SMILES beside them. *: point of attachment. Decanoyl(3R-OH) = CCCCCCC[C@@H](O)CC(=O)*; dPhe(3-Cl) = N[C@H](Cc1cccc(Cl)c1)C(=O)O; azaDab = NCCN(N[*:1])C(=O)[*:2]; dDab = NCC[C@@H](N)C(=O)O; dDap = NC[C@@H](N)C(=O)O; Dab = NCC[C@H](N)C(=O)O

What was measured:
[1] = in vitro; conditions: human
Description: Cytotoxicity of the synthesised peptides was evaluated by comparison with commercially available colistin (polymyxin E), polymyxin B (Sigma chemical Co., St. Louis, Mo., U.S.A.) and synthetic octapeptin C4 by conducting lactate dehydrogenase (LDH) assay. CC50 values calculated based on curve fitting of dose dependent inhibition of cell growth represented the cytotoxicity of the peptide. Human kidney 2 (HK2) cells were seeded as 2000 cells per well in a 384 well cell culture plate in a final volume of 20 μL in DMEM/F12 medium (Invitrogen #11330057), in which 10% of FBS was added. Cells were incubated for 24 hours at 37° C., 5% CO2 to allow cells to attach to the plates. Similar conditions were employed for HEK293 and HepG2 cytotoxicity assays.
Cytotoxicity to HEK293 and HepG2 cells was determined using the resazurin assay (McMillian, M. K.; Li, L.; Parker, J. B.; Patel, L.; Zhong, Z.; Gunnett, J. W.; Powers, W. J.; Johnson, M. D. An improved resazurin-based cytotoxicity assay for hepatic cells; Cell Biol. Toxicol. 2002, 18, 157-173; O'Brien, J.; Wilson, I.; Orton, T.; Pognan, F. Investigation of the Alamar Blue (resazurin) fluorescent dye for the assessment of mammalian cell cytotoxicity. Eur. J. Biochem. 2000, 267, 5421-5426). In brief, HEK293 and HepG2 cells were seeded at 4000 cells/well in black-wall, clear-bottom 384-well plates (Corning, Australia) and incubated for 24 h at 37° C., 5% CO2. Compounds were then added into each well. After 24 h incubation, 5 μM resazurin was added per well and incubated at 37° C. for 2 h. Fluorescence intensity was then read using a Polarstar Omega with excitation/emission 560/590. The data was then analyzed using GraphPad Prism 6 software. CC50 values were determined using GraphPad Prism 6 software (Inc. La Jolla, Calif.).

[2] = test system: A. baumannii GN_093 PmxR; conditions: GN 093 PmxR
Outline: (§1)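 Mid-log cultures grown in Mueller Hinton broth at 37° C were tested by 2-fold broth microdilution at 5×10^5 CFU/mL final. Compounds were dissolved in water and tested over a final range of 32 to 0.015 μg/mL.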

[3] = test system: E. coli ATCC 25922; conditions: ATCC 25922
Outline: as §1

[4] = test system: K. pneumoniae GN_102 PmxR; conditions: GN 102 PmxR
Outline: as §1

[5] = test system: P. aeruginosa ATCC 27853; conditions: ATCC 27853
Outline: as §1

[6] = test system: S. aureus ATCC 25923, MSSA; conditions: ATCC 25923
Outline: as §1

[7] = test system: K. pneumoniae GN_106, PmxR; conditions: GN 106, PmxR
Outline: as §1

[8] = test system: K. pneumoniae ATCC 700603, MDR; conditions: ATCC 700603
Outline: as §1

[9] = test system: K. pneumoniae ATCC BAA-2146, NDM-1 pos; conditions: ATCC BAA-2146
Outline: as §1

[10] = test system: K. pneumoniae ATCC 13883; conditions: ATCC 13883
Outline: as §1

[11] = test system: A. baumannii ATCC 19606; conditions: ATCC 19606
Outline: as §1

[12] = test system: P. aeruginosa GN_105, PmxR; conditions: GN 105, PmxR
Outline: as §1

[13] = test system: P. aeruginosa GN_043, PmxR
Outline: as §1

[14] = in vitro; conditions: human; remark: listed apart in the source
Outline: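 Cells were seeded at 4000 per well and allowed to attach for 24 h at 37 °C, 5% CO2, then exposed to compounds for 24 h. Resazurin (5 μM) was added for 2 h at 37 °C and fluorescence read at 560/590 nm. CC50 was derived by curve fitting of dose-dependent growth inhibition.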

[15] = test system: Neisseria gonorrhoeae; assay: MIC determination, Neisseria gonorrhoeae; assay type: cell-based; conditions: strain FA19 ATCC BAA-1838
Description: Bacteria were either obtained from American Type Culture Collection (ATCC; Manassas, Va., USA) or independent academic clinical isolate collections, as listed in Table 18 below. Bacteria were cultured in Nutrient broth (NB; Bacto Laboratories, catalogue No. 234000) or Mueller Hinton broth (MHB; Bacto Laboratories, catalogue No. 211443) at 37° C. overnight with shaking (˜180 RPM). A sample of each culture was then diluted 50-fold in fresh MHB and incubated at 37° C. for 2-3 h with shaking (˜180 RPM). Compound stock solutions were prepared as 0.64 mg/mL or 2.56 mg/mL in water. The compounds, at twice the final desired concentration, were serially diluted 2-fold across the wells of 96-well plates (Polystyrene, Corning, catalogue No. 3370). Mid-log phase bacterial cultures (after 2-3 h incubation) were diluted to a final concentration of 1×10^6 colony forming units (CFU)/mL, and 50 μL was added to each well giving a final cell density of 5×10^5 and a compound concentration range of 32 μg/mL to 0.015 μg/mL (128-0.06 μg/mL against P. aeruginosa PA9704).

Compound | CC50 at 24 h [1] | MIC A. baumannii Cl Ptyela 10073 4512:2, PmxR [2] | MIC E. coli ATCC 25922 [3] | MIC K. pneumoniae Cl Koprana 10065 0661:1 PmxR [4] | MIC P. aeruginosa ATCC 27853 [5] | MIC S. aureus ATCC 25923, MSSA [6] | MIC K. pneumoniae Cl 183-16357-20352, PmxR [7] | MIC K. pneumoniae ATCC 700603, MDR [8] | MIC K. pneumoniae ATCC BAA-2146, NDM-1 pos [9] | MIC K. pneumoniae ATCC 13883 [10] | MIC A. baumannii ATCC 19606 [11] | MIC P. aeruginosa PA9704, PmxR [12] | MIC, P. aeruginosa FADDI-PA070, PmxR ([13]; strain name as in Table 11) | CC50 at 24 h [14] | MIC A. baumannii GN_093 PmxR [2] | MIC K. pneumoniae GN_102 PmxR [4] | MIC K. pneumoniae GN_106, PmxR [7] | MIC P. aeruginosa GN_105, PmxR [12] | MIC N. gonorrhoeae FA19 ATCC BAA-1838 [15] | other results
CCCCCCC[C@@H](O)CC(=O)N[C@H](CCN)C(=O)N[C@H]1CCNC(=O)[C@H](CC(C)C)NC(=O)[C@H](CCN)NC(=O)[C@H](CCN)NC(=O)[C@H](CC(C)C)NC(=O)[C@@H](Cc2ccccc2)NC(=O)N(CCN)NC1=O [compound 8636, 3(R)OH-nC9CO-D-Dab-cyc[L-Dab-azaDAB-D-Phe-L-Leu-L-Dab-L-Dab-L-Leu]] ({Decanoyl(3R-OH)}-[dDab][Dab][azaDab][dF]L[Dab][Dab]L; lactam 2-C) | > 300 µM | >32 µg/mL | 16 µg/mL (≈ 15.3 µM) | >32 µg/mL | 4 µg/mL (≈ 3.83 µM) | 32 µg/mL (≈ 30.6 µM) | >32 µg/mL | 16 µg/mL (≈ 15.3 µM) | >32 µg/mL | >32 µg/mL | >32 µg/mL | >32 µg/mL | >32 µg/mL | > 300 µM | – | – | – | – | – | –
CCCCCCC[C@@H](O)CC(=O)N[C@H](CCN)C(=O)N[C@H]1CCNC(=O)[C@H](CC(C)C)NC(=O)[C@H](CCN)NC(=O)[C@H](CCN)NC(=O)[C@@H](CC(C)C)NC(=O)[C@H](Cc2ccccc2)NC(=O)[C@H](CCN)NC1=O [compound 8640, 3(R)OH-nC9CO-D-Dab-cyc[L-Dab-L-DAB-L-Phe-D-Leu-L-Dab-L-Dab-L-Leu]] ({Decanoyl(3R-OH)}-[dDab][Dab][Dab]F[dL][Dab][Dab]L; lactam 2-C) | ≥ 300 µM | – | 16 µg/mL (≈ 15.3 µM) | – | 8 µg/mL (≈ 7.66 µM) | 32 µg/mL (≈ 30.6 µM) | – | 32 µg/mL (≈ 30.6 µM) | >32 µg/mL | >32 µg/mL | >32 µg/mL | – | – | > 300 µM | >32 µg/mL | >32 µg/mL | >32 µg/mL | >32 µg/mL | – | MIC P. aeruginosa GN_043, PmxR ([13]; P. aeruginosa GN_043, PmxR): >32 µg/mL
CCCCCCC[C@@H](O)CC(=O)N[C@H](CCN)C(=O)N[C@H]1CCNC(=O)[C@H](CC(C)C)NC(=O)N(CCN)NC(=O)[C@H](CCN)NC(=O)[C@H](CC(C)C)NC(=O)[C@@H](Cc2ccccc2)NC(=O)[C@H](CCN)NC1=O [compound 8782, 3(R)OH-nC9CO-D-Dab-cyc[L-Dab-L-DAB-D-Phe-L-Leu-L-Dab-azaDab-L-Leu]] ({Decanoyl(3R-OH)}-[dDab][Dab][Dab][dF]L[Dab][azaDab]L; lactam 2-C) | > 300 µM | >32 µg/mL | 16 µg/mL (≈ 15.3 µM) | >32 µg/mL | 2 µg/mL (≈ 1.91 µM) | 16 µg/mL (≈ 15.3 µM) | >32 µg/mL | 32 µg/mL (≈ 30.6 µM) | >32 µg/mL | 32 µg/mL (≈ 30.6 µM) | >32 µg/mL | 32 µg/mL (≈ 30.6 µM) | 8 µg/mL (≈ 7.65 µM) | > 300 µM | – | – | – | – | – | –
CCCCCCC[C@@H](O)CC(=O)N[C@H](CCN)C(=O)N[C@H]1CCNC(=O)[C@H](Cc2c[nH]c3ccccc23)NC(=O)[C@H](CCN)NC(=O)[C@H](CCN)NC(=O)[C@H](CC(C)C)NC(=O)[C@@H](Cc2cccc(Cl)c2)NC(=O)[C@H](CCN)NC1=O [compound 8914, 3(R)OH-nC9CO-D-Dab-cyc[L-Dab-L-Dab-D-Phe(3-Cl)-L-Leu-L-Dab-L-Dab-L-Trp]] ({Decanoyl(3R-OH)}-[dDab][Dab][Dab][dPhe(3-Cl)]L[Dab][Dab]W; lactam 2-C) | – | – | 2 µg/mL (≈ 1.74 µM) | – | 2 µg/mL (≈ 1.74 µM) | 2 µg/mL (≈ 1.74 µM) | – | 2 µg/mL (≈ 1.74 µM) | 4 µg/mL (≈ 3.47 µM) | 2 µg/mL (≈ 1.74 µM) | 4 µg/mL (≈ 3.47 µM) | – | – | 25 µM | 4 µg/mL (≈ 3.47 µM) | 4 µg/mL (≈ 3.47 µM) | 4 µg/mL (≈ 3.47 µM) | 1 µg/mL (≈ 0.868 µM) | 0.78 µg/mL (≈ 0.677 µM) | MIC P. aeruginosa GN_043, PmxR ([13]; polymyxin-resistant): 4 µg/mL (≈ 3.47 µM)
CCCCCCC[C@@H](O)CC(=O)N[C@H](CN)C(=O)N[C@H]1CCNC(=O)[C@H](CC(C)C)NC(=O)[C@H](CCN)NC(=O)[C@H](CO)NC(=O)[C@H](CC(C)C)NC(=O)[C@@H](Cc2ccccc2)NC(=O)[C@H](CCN)NC1=O [compound 9193, 3(R)-OH-nC9CO-D-Dab-cyc[L-Dab-L-Dab-L-Leu-D-Phe-L-Dab-L-Dab-L-Leu]] ({Decanoyl(3R-OH)}-[dDap][Dab][Dab][dF]LS[Dab]L; lactam 2-C) | – | – | – | – | – | – | – | – | – | – | – | – | – | > 300 µM | – | – | – | – | 25 µg/mL (≈ 24.6 µM) | MIC, A. baumannii Cl Ptyela 10073 4512:2, PmxR [2]: >32 µg/mL; MIC, E. coli ATCC 25922 [3]: >32 µg/mL; MIC, K. pneumoniae Cl Koprana 10065 0661:1, PmxR [4]: >32 µg/mL; MIC, P. aeruginosa ATCC 27853 [5]: 32 µg/mL (≈ 31.5 µM); MIC, S. Aureus ATCC 25923, MSSA [6]: >32 µg/mL; MIC, K. pneumoniae Cl 138-16347-20362, PmxR [7]: >32 µg/mL; MIC, K. pneumoniae ATCC 700603, MDR [8]: >32 µg/mL; MIC, K. pneumoniae ATCC BAA-2146, NDM-1 pos [9]: >32 µg/mL; MIC, K. pneumoniae ATCC 13883 [10]: >32 µg/mL; MIC, A. baumannii ATCC 19606 [11]: 32 µg/mL (≈ 31.5 µM); MIC, P. aeruginosa PA9704, PmxR [12]: >32 µg/mL; MIC, P. aeruginosa FADDI-PA070, PmxR ([13]; Table 5, polymyxin-resistant): >32 µg/mL
